From patent US20180312493A1, “Antibiotic Compounds, Pharmaceutical Formulations Thereof And Methods And Uses Therefor” (Simon Fraser University, priority 2015, published 2018)
Values after ≈ are worked out from the molar mass of the structure shown.

biological target: T1, MRSA Pyk (Staphylococcus aureus, UniProt Q6GG09); experiment: MRSA pyruvate kinase (PK) activity, continuous LDH-coupled assay; format: biochemical, methicillin resistant S. aureus (MRSA252); conditions: not given
T1 construct: made in house; host or cells: E. coli BL-21 (DE3)
T1 sequence (Q6GG09 whole entry): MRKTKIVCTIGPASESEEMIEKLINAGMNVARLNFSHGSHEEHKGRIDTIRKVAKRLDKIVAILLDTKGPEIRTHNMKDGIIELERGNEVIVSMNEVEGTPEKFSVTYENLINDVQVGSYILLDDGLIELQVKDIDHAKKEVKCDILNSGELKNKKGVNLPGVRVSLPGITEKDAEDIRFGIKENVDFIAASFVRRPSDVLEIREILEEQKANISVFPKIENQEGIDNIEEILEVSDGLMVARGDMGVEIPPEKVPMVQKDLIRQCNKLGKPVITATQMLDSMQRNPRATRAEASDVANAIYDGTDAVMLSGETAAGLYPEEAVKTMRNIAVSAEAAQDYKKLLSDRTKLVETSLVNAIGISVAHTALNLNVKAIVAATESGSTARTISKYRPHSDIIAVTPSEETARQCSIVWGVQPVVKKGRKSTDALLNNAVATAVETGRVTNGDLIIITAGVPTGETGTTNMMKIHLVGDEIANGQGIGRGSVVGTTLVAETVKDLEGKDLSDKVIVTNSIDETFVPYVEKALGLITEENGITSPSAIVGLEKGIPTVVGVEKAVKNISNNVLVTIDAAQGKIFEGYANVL
Text: Genomic DNA of MRSA strain Sanger 252 extracted using DNeasy Tissue Kit™ (Qiagen™) was used as a template to generate the His-tagged MRSA PK. Human cDNA from MCF-7 breast cancer cell line (courtesy of Dr. J Wong, BC Cancer Research Center (Vancouver, Canada)) was used as a template to generate the full-length human M2 PK enzyme. The following primer sets were used creating appropriate restriction sites (NdeI and XhoI sites underlined): For cloning of MRSA PK: M27F 5′-[…]-3′ and M27R 5′-[…]-3′, for cloning of human M2 PK isoform: hM2F 5′-[…]-3′ and hM2R 5′-[…]-3′. The resulting PCR fragments for each construct were cloned into the NdeI and XhoI unique sites of the bacterial expression vector pET-28a (+) (Novagen™). […] The sequence and the correct reading frame of all constructs were verified by sequencing. Human M1, R and L PK constructs in pET-28-a(+) vectors (courtesy of Dr. L. Cantley, Harvard Medical, School (Boston, USA)) were used to generate relevant recombinant His-tagged human PK isoforms.
MRSA and human constructs in pET-28a(+) were used to express relevant recombinant PK proteins in E. coli BL-21 (DE3). The proteins were expressed and purified using Ni-NTA agarose (Qiagen™) according to the manufacturer's protocol. Briefly, cells were grown to an absorbance of 0.4-0.5 at 600 nm in 2×YT medium, then induced with 0.1 mM IPTG for 3 h at 20° C. Cells were lysed by sonication on ice (3×10-s bursts with a 30-s recovery between bursts) in lysis buffer (0.2 mg/ml lysozyme, 50 mM Tris pH 7.5, 10 mM MgCl2, 200 mM NaCl, 100 mM KCl, 10% glycerol, 10 mM imidazole, 0.5% NP-40 and 1 mM DTT containing Complete™ protease inhibitor). Cell lysates were cleared by centrifugation (18,000×g in a Beckman™ JA-20 rotor) for 20 min at 4° C. and PK isoforms were purified by batch binding to Ni-NTA resin. The resins were then packed in columns (1×2 cm) and washed with 400 column volumes lysis buffer containing 30 mM imidazole. His-tagged PK isoforms were eluted with the same buffer containing 300 mM imidazole. The proteins were dialyzed overnight at 4° C. against 2000 volumes of ice-cold 30 mM Tris pH 7.5, 25 mM KCl, 5 mM MgCl2, 10% glycerol and 1 mM DTT to remove imidazole. All purification steps were done at 4° C.; enzymes were flash-frozen and stored at −70° C. Enzymatic activity of frozen protein preparations was stable for at least 10 months and up to 5 freeze/thaw cycles. Purity and physical integrity of proteins were assessed using SDS-polyacrylamide gel electrophoresis (SDS-PAGE) followed by coomassie blue staining. Protein concentration was estimated by Bradford assay (Bio-Rad Protein Assay™) using bovine serum albumin as a standard.
Candidate MRSA PK inhibitors were assayed for their ability to inhibit enzymatic activities of MRSA and human PKs. PK activity was determined using a continuous assay coupled to lactate dehydrogenase (LDH) in which the change in absorbance at 340 nm owing to oxidation of NADH was measured using a Benchmark Plus™ microplate spectrophotometer (Bio-Rad Laboratories, Hercules, Calif.). […] Reactions were initiated by the addition of 15 nM of one of the PK enzymes. PK activity proportional to the rate of change at 340 nm was expressed as specific activity (μmol/min/mg), which is defined as the amount of PK that catalyzes the formation of one micromole of either product per minute. Inhibitors were dissolved in DMSO with the final concentration of the solvent never exceeding 1% of the assay volume. IC50 values were calculated by curve fitting on a four-parameter dose-response model with variable slope using Graphpad Prism 5.0™ (GraphPad™ Software Inc., La Jolla, Calif.). In all studies, less than 10% of total PEP was exhausted during the reaction. Reactions were performed at 30° C. for up to 5 min. All values determined represent at least two measurements, in triplicate (Tables 1-6) or duplicate unless mentioned otherwise. […]

**Q.** For `CN(C)CCNC(=O)c1c(NCc2ccc(Cl)cc2)[nH]c2cc(Br)ccc12` [Compound 83, 6-bromo-2-(4-chlorobenzylamino)-N-(2-(dimethylamino)ethyl)-1H-indole-3-carboxamide], which IC50 is on record?
**A.** > 1000 nM

**Q.** Which IC50 does the source give for `O=C(c1c(/C=C/c2ccc(Cl)cc2)[nH]c2cc(Br)ccc12)N1CCNCC1` [Compound 25, (E)-(6-Bromo-2-(4-chlorostyryl)-1H-indol-3-yl)(piperazin-1-yl)methanone] here?
**A.** 100 to 1000 nM

**Q.** `O=C(NCc1cccnc1)c1c(/C=C/c2ccc(Cl)nc2)[nH]c2cc(Br)ccc12` [Compound 37, (E)-6-Bromo-2-(2-(6-chloropyridin-3-yl)vinyl)-N-(pyridin-3-ylmethyl)-1 H-indole-3-carboxamide] was tested. Which IC50 did it give?
**A.** 100 to 1000 nM

**Q.** Which IC50 does the source give for `O=C(NCCN1CCOCC1)c1c(/C=C/c2ccc(Cl)cc2)[nH]c2cc(Br)ccc12` [Compound 29, (E)-6-Bromo-2-(4-chlorostyryl)-N-(2-morpholinoethyl)-1H-indole-3-carboxamide] here?
**A.** > 1000 nM

**Q.** For `O=C(NCCCO)c1c(-c2cc3cc(Cl)ccc3[nH]2)[nH]c2cc(Br)ccc12` [Compound 133, 6-Bromo-5′-chloro-N-(3-hydroxypropyl)-1H,1′H-[2,2′-biindole]-3-carboxamide], which IC50 is on record?
**A.** < 100 nM

**Q.** Which IC50 does the source give for `CC(=O)OCC(=O)Nc1c(CCc2ccc(Cl)cc2)[nH]c2cc(Br)ccc12` [Compound 97, 2-(6-Bromo-2-(4-chlorophenethyl)-1H-indol-3-ylamino)-2-oxoethyl Acetate] here?
**A.** > 1000 nM

**Q.** How did the IC50 turn out when `COc1ccc(CCc2[nH]c3cc(Br)ccc3c2CCO)nc1` [Compound 71, 2-(6-Bromo-2-(2-(5-methoxypyridin-2-yl)ethyl)-1H-indol-3-yl)ethanol] was run?
**A.** > 1000 nM

test system: S. aureus (ATCC29213); experiment: In vitro susceptibility, broth microdilution (MIC); format: cell-based; conditions: Staphylococcus aureus; S. aureus ATCC29213; 18-24 h, 37 C; read-out: Antimicrobial activity (MIC) S. aureus ATCC29213
Text: Epidemic methicillin resistant S. aureus (MRSA) strain sequenced at the Sanger Centre (MRSA252, NRS71) was obtained from NARSA (Network on Antimicrobial Resistance in S. aureus). Methicillin sensitive S. aureus (ATCC 29213 and 25923), methicillin resistant S. aureus (ATCC BAA-1762), and Salmonella typhimurium (ATCC BAA-185) were obtained from ATCC, The Global Bioresource Center. Acinetobacter baumannii (ATCC 19606 and ATCC 17978), Klebsiella pneumonia (C238), vancomycin resistant Enterococci #2 (2010A) (VRE#2), MRSA (USA400, MW2) and Pseudomonas aeruginosa (PA0-1) were obtained from the laboratory of Dr B. B. Finlay at the University of British Columbia (Vancouver, Canada).
The antimicrobial activities of PK inhibitor candidates were determined using the 96-well microtiter standard 2-fold serial broth microdilution method as described by CLSI (formerly NCCLS) with the various gram-positive and gram-negative bacteria species mentioned above. Bacteria from a single colony were grown, overnight in either BHI Broth (VRE), mueller hinton broth (S. aureus 29213; MRSA USA400, A. baumannii 19606, MRSA BAA-1762) or L-broth (P. aeruginosa, S. typhimurium, K. pneumonia and A. baumannii 17978). […] Culture plates were incubated for 18-24 h at 37° C., and optical density at 600 nm (OD600) was measured using a Benchmark Plus™ microplate spectrophotometer (Bio-Rad™). The absorbance control values for the series containing CAMHB and inhibitor were subtracted as background from the corresponding infected wells. Minimal inhibitory concentration (MIC) was defined as the lowest concentration of test compound leading to complete inhibition of cell growth in relation to compound-free control wells as determined by optical density. Vancomycin, methicillin and ciprofloxicin were used as reference compounds. All assays were run in triplicate or duplicate. Experiments were replicated at least twice to verify reproducibility using the above conditions.

**Q.** With `O=C(c1c(/C=C/c2ccc(Cl)cc2)[nH]c2cc(Br)ccc12)N1CCNCC1` [Compound 25, (E)-(6-Bromo-2-(4-chlorostyryl)-1H-indol-3-yl)(piperazin-1-yl)methanone] as the compound, how does the MIC read?
**A.** 8 µg/mL (≈ 18 µM)

**Q.** With `OC(c1c(CCc2cc(Cl)cc(Cl)c2)[nH]c2cc(Br)ccc12)(C(F)(F)F)C(F)(F)F` [Compound 15, 2-(6-Bromo-2-(3,5-dichlorophenethyl)-1H-indol-3-yl)-1,1,1,3,3,3-hexafluoropropan-2-ol] as the compound, how does the MIC read?
**A.** 1 µg/mL (≈ 1.87 µM)

**Q.** With `O=C(Nc1nc2cc(F)ccc2o1)NC1CCCCC1` [Compound 180, 1-cyclohexyl-3-(5-fluorobenzo[d]oxazol-2-yl)urea] as the compound, how does the MIC read?
**A.** > 64 µg/mL

**Q.** How did the MIC turn out when `O=C(Nc1ccccn1)Nc1nc2cc(Br)ccc2s1` [Compound 163, 1-(5-bromobenzo[d]thiazol-2-yl)-3-(pyridin-2-yl)urea] was run?
**A.** > 64 µg/mL

**Q.** Which MIC does the source give for `CS(=O)(=O)NC(=O)CNC(=O)c1c(-c2cc3cc(Cl)ccc3[nH]2)[nH]c2cc(Br)ccc12` [Compound 151, 6-bromo-5′-chloro-N-(2-(methylsulfonamido)-2-oxoethyl)-1H,1′H-[2,2′-biindole]-3-carboxamide] here?
**A.** > 64 µg/mL

**Q.** How did the MIC turn out when `COC(=O)[C@@H]1CN(CCNC(=O)c2c(-c3cc4cc(Cl)ccc4[nH]3)[nH]c3cc(Br)ccc23)CCN1C(=O)OCc1ccccc1` [Compound 226, 1-benzyl 2-methyl (S)-4-(2-(6-bromo-5′-chloro-1H,1′H-[2,2′-biindole]-3-carboxamido)ethyl)piperazine-1,2-dicarboxylate] was run?
**A.** > 64 µg/mL

**Q.** `O=C(Nc1ccc(Cl)cc1)Nc1nc2cc(Cl)ccc2o1` [Compound 177, 1-(5-chlorobenzo[d]oxazol-2-yl)-3-(4-chlorophenyl)urea] was tested. Which MIC did it give?
**A.** > 64 µg/mL

**Q.** For `O=C(NCCN1CCN(C(=O)COCC(=O)N2CCN(CCNC(=O)c3c(/C=C/c4ccc(Cl)cc4)[nH]c4cc(Br)ccc34)CC2)CC1)c1c(/C=C/c2ccc(Cl)cc2)[nH]c2cc(Br)ccc12` [Compound 56, (E)-N,N′-((4,4′-(2,2′-oxybis(acetyl))bis(piperazine-4,1-diyl))bis(ethane-2,1-diyl))bis(6-bromo-2-((E)-4-chlorostyryl)-1H-indole-3-carboxamide)], which MIC is on record?
**A.** > 64 µg/mL

**Q.** `O=C(Nc1ccc(Cl)cc1)Nc1nc2cc([N+](=O)[O-])ccc2s1` [Compound 167, 1-(4-chlorophenyl)-3-(5-nitrobenzo[d]thiazol-2-yl)urea] was tested. Which MIC did it give?
**A.** > 64 µg/mL

**Q.** `O=C(O)C1CNCCN1C(=O)c1c(-c2cc3cc(Cl)ccc3[nH]2)[nH]c2cc(Br)ccc12` (centres unmarked) [Compound 225, 1-(6-bromo-5′-chloro-1H,1′H-[2,2′-biindole]-3-carbonyl)piperazine-2-carboxylic Acid] was tested. Which MIC did it give?
**A.** > 64 µg/mL

**Q.** `O=C(Nc1ccc(Cl)cc1)Nc1nc2cc(F)ccc2o1` [Compound 179, 1-(4-chlorophenyl)-3-(5-fluorobenzo[d]oxazol-2-yl)urea] was tested. Which MIC did it give?
**A.** > 64 µg/mL

**Q.** `O=C(Nc1ccc(Cl)cc1)Nc1nc2ccccc2o1` [Compound 164, 1-(benzo[d]oxazol-2-yl)-3-(4-chlorophenyl)urea] was tested. Which MIC did it give?
**A.** > 64 µg/mL

**Q.** For `COc1ccc2sc(NC(=O)Nc3ccc(Cl)cc3)nc2c1` [Compound 165, 1-(4-chlorophenyl)-3-(5-methoxybenzo[d]thiazol-2-yl)urea], which MIC is on record?
**A.** > 64 µg/mL

**Q.** For `CNC(=O)c1c(/C=C/c2ccc(Cl)cc2)[nH]c2cc(Br)ccc12` [Compound 20, (E)-6-Bromo-2-(4-chlorostyryl)-N-methyl-1H-indole-3-carboxamide], which MIC is on record?
**A.** 64 µg/mL (≈ 164 µM)

**Q.** With `CCOC(=O)c1ccc2sc(NC(=O)Nc3ccc(Cl)cc3)nc2c1` [Compound 171, ethyl 2-(3-(4-chlorophenyl)ureido)benzo[d]thiazole-5-carboxylate] as the compound, how does the MIC read?
**A.** > 64 µg/mL

**Q.** How did the MIC turn out when `O=C(Nc1ccc(Cl)cc1)Nc1nc2ccccc2s1` [Compound 162, 1-(benzo[d]thiazol-2-yl)-3-(4-chlorophenyl)urea] was run?
**A.** > 64 µg/mL

**Q.** For `O=C(Nc1nc2cc(Cl)ccc2o1)NC1CCCCC1` [Compound 178, 1-(5-chlorobenzo[d]oxazol-2-yl)-3-cyclohexylurea], which MIC is on record?
**A.** > 64 µg/mL

**Q.** How did the MIC turn out when `COC(=O)[C@@H]1CN(CCNC(=O)c2c(-c3cc4cc(Cl)ccc4[nH]3)[nH]c3cc(Br)ccc23)CCN1` [Compound 227, Methyl (S)-4-(2-(6-bromo-5′-chloro-1H,1′H-[2,2′-biindole]-3-carboxamido)ethyl)piperazine-2-carboxylate] was run?
**A.** > 64 µg/mL

**Q.** With `NC(=O)N1CCN(CCNC(=O)c2c(-c3cc4cc(Cl)ccc4[nH]3)[nH]c3cc(Br)ccc23)CC1` [Compound 132, 6-bromo-N-(2-(4-carbamoylpiperazin-1-yl)ethyl)-5′-chloro-1H,1′H-2,2′-biindole-3-carboxamide] as the compound, how does the MIC read?
**A.** > 64 µg/mL
